Laboratory results: patent US20100285149A1, “NOVEL TETRAHYDROPYRIDOTHIOPHENES” (priority 2006, published 2010)

Experiments:
[1] = tested on: RKO (RKOp27) human colon adenocarcinoma cells; experiment: Alamar Blue cell viability assay, proliferating (uninduced) RKO p27 cells; assay type: cell-based; conditions: anti-proliferative/cytotoxic activity, 72 hours incubation, no Ponasterone A
Description: The anti-proliferative/cytotoxic activity of the compounds described herein, can be tested on subclones of RKO (RKOp27) human colon adenocarcinoma cells (Schmidt et al., Oncogene 19, 2423-2429; 2000) using the Alamar Blue cell viability assay (described in O'Brien et al. Eur J Biochem 267, 5421-5426, 2000). The compounds are dissolved as 20 mM solutions in dimethylsulfoxide (DMSO) and subsequently diluted in semi-logarithmic steps. DMSO dilutions are further diluted 1:100 into Dulbecco's modified Eagle's medium (DMEM) containing 10% fetal calf serum to a final concentration twice as much as the final concentration in the test. RKO subclones are seeded into 96 well flat bottom plates at a density of 5000 cells per well in a volume of 50 μl per well. 24 hours after seeding the 50 μl each of the compound dilutions in DMEM medium are added into each well of the 96 Well plate. Each compound dilution is tested as quadruplicates. Wells containing untreated control cells are filled with 50 μl DMEM medium containing 1% DMSO. The cells are then incubated with the substances for 72 hours at 37° C. in a hunified atmosphere containing 5% carbon dioxide. To determine the viability of the cells, 10 μl of an Alamar Blue solution (Biosource) are added and the fluorescence is measured at an extinction of 544 nm and an emission of 590 nm. For the calculation of the cell viability the emission value from untreated cells is set as 100% viability and the emission rates of treated cells are set in relation to the values of untreated cells. Viabilities are expressed as % values.
The corresponding IC50 values of the compounds for anti-proliferative/cytotoxic activity are determined from the concentration-effect curves.
(§1) Representative IC50 values for anti-proliferation/cytotoxicity determined in the mentioned assays follow from the following table A, in which the numbers of the compound correspond to the numbers of the examples.

[2] = tested on: RKO colon adenocarcinoma cells (RKOp27) arrested by the expression of ectopic p27Kip1; experiment: Alamar Blue cell viability assay, RKO p27 cells arrested by Ponasterone A induced p27Kip1; assay type: cell-based; conditions: Homo sapiens, anti-proliferative/cytotoxic activity, 72 hours incubation, 10 μM Ponasterone A
Description: To determine the cell cycle specific mode of action, subclones of RKO colon adenocarcinoma cells (RKOp27 or RKOp21 as described by Schmidt et al. in Oncogene 19, 2423-2429; 2000) are seeded into 96 well flat bottom plates at a density of 15000 cells per well in a volume of 50 μl per well in DMEM growth medium with 10% FCS containing 10 μM Ponasterone A. 24 hours after seeding the 50 μl each of the compound dilutions in DMEM medium are added into each well of the 96 Well plate. Each compound dilution is tested as quadruplicates. Wells containing untreated control cells are filled with 50 μl DMEM medium containing 1% DMSO. The cells are then incubated with the substances for 72 hours at 37° C. in a humidified athmosphere containing 5% carbon dioxide. To determine the viability of the cells, 10 μl of an Alamar Blue solution (Biosource) are added and the fluorescence was measured at an extinction of 544 nm and an emission of 590 nm. For the calculation of the cell viability the emission value from untreated cells is set as 100% viability and the emission rates of treated cells are set in relation to the values of untreated cells. Viabilities are expressed as % values. Viability is compared of proliferating cells grown in the absence of the inducer Ponasterone A, versus viability of cells arrested by the expression of ectopic p27Kip1 induced by Ponasterone A.
as §1

SMILES | IC50 [1] [nM] | IC50 [2] [nM]
CCNC(=O)N1CCc2c(sc(NC(=O)CC(C)c3ccccc3)c2C#N)C1 (stereo not drawn) [Example 114, 3-Cyano-2-(3-phenyl-butanoylamino)-4,7-dihydro-5H-thieno[2,3-c]pyridine-6-carboxylic acid ethylamide] | ≤ 500 | ≥ 100000
CCNC(=O)N1CCc2c(sc(NC(=O)C3CC3c3cccc(OC)c3)c2C#N)C1 (racemic) [Example 117, 3-Cyano-2-({1-[(RS)-2-(3-methoxy-phenyl)-cyclopropyl]-methanoyl}-amino)-4,7-dihydro-5H-thieno[2,3-c]pyridine-6-carboxylic acid ethylamide] | ≤ 500 | ≥ 60000
CCNC(=O)N1CCc2c(sc(NC(=O)CC(C)c3cccc(OC)c3)c2C#N)C1 (stereo not drawn) [Example 110, 3-Cyano-2-[3-(3-methoxy-phenyl)-butanoylamino]-4,7-dihydro-5H-thieno[2,3-c]pyridine-6-carboxylic acid ethylamide] | ≤ 500 | ≥ 100000
CCNC(=O)N1CCc2c(sc(NC(=O)CC(C)c3ccccc3OC)c2C#N)C1 (stereo not drawn) [Example 111, 3-Cyano-2-[3-(2-methoxy-phenyl)-butanoylamino]-4,7-dihydro-5H-thieno[2,3-c]pyridine-6-carboxylic acid ethylamide] | ≤ 500 | ≥ 60000
CCNC(=O)N1CCc2c(sc(NC(=O)CCc3cc(C)ccc3OC)c2C#N)C1 [Example 107, 3-Cyano-2-[3-(2-methoxy-5-methyl-phenyl)-propanoylamino]-4,7-dihydro-5H-thieno[2,3-c]pyridine-6-carboxylic acid ethylamide] | ≤ 500 | ≥ 100000
CCNC(=O)N1CCc2c(sc(NC(=O)CCc3ccccc3OC)c2C#N)C1 [Example 113, 3-Cyano-2-[3-(2-methoxy-phenyl)-propanoylamino]-4,7-dihydro-5H-thieno[2,3-c]pyridine-6-carboxylic acid ethylamide] | ≤ 500 | ≥ 100000
CCNC(=O)N1CCc2c(sc(NC(=O)CCc3ccco3)c2C#N)C1 [Example 109, 3-Cyano-2-(3-furan-2-yl-propanoylamino)-4,7-dihydro-5H-thieno[2,3-c]pyridine-6-carboxylic acid ethylamide] | ≤ 500 | ≥ 100000
CCNC(=O)N1CCc2c(sc(NC(=O)CCC3CCCCC3)c2C#N)C1 [Example 118, 3-Cyano-2-(3-cyclohexyl-propanoylamino)-4,7-dihydro-5H-thieno[2,3-c]pyridine-6-carboxylic acid ethylamide] | ≤ 500 | ≥ 100000
COc1cccc(CCC(=O)Nc2sc3c(c2C#N)CCN(C(=O)NCCc2cn(C)cn2)C3)c1 [Example 71, 3-Cyano-2-[3-(3-methoxy-phenyl)-propanoylamino]-4,7-dihydro-5H-thieno[2,3-c]pyridine-6-carboxylic acid [2-(1-methyl-1H-imidazol-4-yl)-ethyl]-amide] | 500 to 2000 | ≥ 100000
CCNC(=O)N1CCc2c(sc(NC(=O)CCc3ccccc3OCC)c2C#N)C1 [Example 106, 3-Cyano-2-[3-(2-ethoxy-phenyl)-propanoylamino]-4,7-dihydro-5H-thieno[2,3-c]pyridine-6-carboxylic acid ethylamide] | ≤ 500 | ≥ 100000
COc1ccccc1CCC(=O)Nc1sc2c(c1C#N)CCN(C(=O)NCCc1cn(C)cn1)C2 [Example 105, 3-Cyano-2-[3-(2-methoxy-phenyl)-propanoylamino]-4,7-dihydro-5H-thieno[2,3-c]pyridine-6-carboxylic acid [2-(1-methyl-1H-imidazol-4-yl)-ethyl]-amide] | ≤ 500 | ≥ 100000
CCNC(=O)N1CCc2c(sc(NC(=O)CC(C)c3ccccc3OCC)c2C#N)C1 (stereo not drawn) [Example 112, 3-Cyano-2-[3-(2-ethoxy-phenyl)-butanoylamino]-4,7-dihydro-5H-thieno[2,3-c]pyridine-6-carboxylic acid ethylamide] | ≤ 500 | ≥ 100000
CCNC(=O)N1CCc2c(sc(NC(=O)C3CC3c3ccccc3OC)c2C#N)C1 (racemic) [Example 116, 3-Cyano-2-({1-[(RS)-2-(2-methoxy-phenyl)-cyclopropyl]-methanoyl}-amino)-4,7-dihydro-5H-thieno[2,3-c]pyridine-6-carboxylic acid ethylamide] | ≤ 500 | ≥ 100000
CCNC(=O)N1CCc2c(sc(NC(=O)CCc3ccccc3)c2C#N)C1 [Example 115, 3-Cyano-2-(3-phenyl-propanoylamino)-4,7-dihydro-5H-thieno[2,3-c]pyridine-6-carboxylic acid ethylamide] | ≤ 500 | ≥ 100000
CCNC(=O)N1CCc2c(sc(NC(=O)CCc3cccc(OC)c3)c2C#N)C1 [Example 108, 3-Cyano-2-[3-(3-methoxy-phenyl)-propanoylamino]-4,7-dihydro-5H-thieno[2,3-c]pyridine-6-carboxylic acid ethylamide] | ≤ 500 | ≥ 100000
